What was measured:
[1] = target: Tyrosine-protein kinase JAK2 (Homo sapiens) (UniProt O60674); conditions: Compound concentration 1000.0 nM
[2] = target: Serine/threonine-protein kinase Nek9 (Homo sapiens) (UniProt Q8TD19); conditions: Compound concentration 1000.0 nM
[3] = target: Protein kinase C delta type (Homo sapiens) (UniProt Q05655); conditions: Compound concentration 1000.0 nM
[4] = target: G protein-coupled receptor kinase 3 (Homo sapiens) (UniProt P35626); conditions: Compound concentration 1000.0 nM
[5] = target: Phosphatidylinositol 4,5-bisphosphate 3-kinase catalytic subunit alpha isoform (Homo sapiens) (UniProt P42336); conditions: Compound concentration 1000.0 nM
Chain of Phosphatidylinositol 4,5-bisphosphate 3-kinase catalytic subunit alpha isoform (Homo sapiens) (P42336 whole entry, canonical isoform): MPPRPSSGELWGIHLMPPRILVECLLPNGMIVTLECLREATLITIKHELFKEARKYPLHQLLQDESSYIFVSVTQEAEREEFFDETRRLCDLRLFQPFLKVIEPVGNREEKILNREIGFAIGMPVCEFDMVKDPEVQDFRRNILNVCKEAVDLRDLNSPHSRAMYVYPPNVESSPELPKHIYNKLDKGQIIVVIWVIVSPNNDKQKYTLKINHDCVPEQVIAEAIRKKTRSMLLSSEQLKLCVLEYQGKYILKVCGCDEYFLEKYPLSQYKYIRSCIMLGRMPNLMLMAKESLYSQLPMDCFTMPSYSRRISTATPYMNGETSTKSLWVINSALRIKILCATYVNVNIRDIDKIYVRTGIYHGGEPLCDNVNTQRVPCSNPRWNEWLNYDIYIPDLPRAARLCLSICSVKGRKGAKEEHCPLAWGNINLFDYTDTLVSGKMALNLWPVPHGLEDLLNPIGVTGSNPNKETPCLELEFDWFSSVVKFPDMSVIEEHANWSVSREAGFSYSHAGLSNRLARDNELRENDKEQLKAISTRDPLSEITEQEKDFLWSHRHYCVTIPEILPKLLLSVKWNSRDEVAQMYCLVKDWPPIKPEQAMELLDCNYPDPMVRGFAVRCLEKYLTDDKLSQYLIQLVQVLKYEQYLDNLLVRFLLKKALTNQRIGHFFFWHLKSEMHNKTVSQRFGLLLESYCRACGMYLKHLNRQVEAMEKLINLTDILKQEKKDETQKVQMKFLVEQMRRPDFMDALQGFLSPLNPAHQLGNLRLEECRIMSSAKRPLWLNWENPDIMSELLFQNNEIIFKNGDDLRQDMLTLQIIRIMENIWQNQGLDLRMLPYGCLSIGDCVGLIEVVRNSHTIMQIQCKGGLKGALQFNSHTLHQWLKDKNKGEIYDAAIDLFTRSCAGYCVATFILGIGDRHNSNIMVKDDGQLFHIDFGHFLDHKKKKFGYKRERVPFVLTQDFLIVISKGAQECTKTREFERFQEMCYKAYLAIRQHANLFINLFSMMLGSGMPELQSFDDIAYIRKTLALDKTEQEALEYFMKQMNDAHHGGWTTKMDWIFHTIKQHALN

[6] = target: Receptor-interacting serine/threonine-protein kinase 2 (Homo sapiens) (UniProt O43353); conditions: Compound concentration 1000.0 nM
[7] = target: Ephrin type-B receptor 3 (Homo sapiens) (UniProt P54753); conditions: Compound concentration 1000.0 nM
[8] = test system: Phosphatidylinositol 4,5-bisphosphate 3-kinase catalytic subunit alpha isoform (Homo sapiens), P42336 [E545A]; conditions: Compound concentration 1000.0 nM
Chain of Phosphatidylinositol 4,5-bisphosphate 3-kinase catalytic subunit alpha isoform (Homo sapiens), P42336 [E545A] (P42336 whole entry E545A, canonical isoform): as the sequence (P42336 whole entry, canonical isoform) above, with E545A counted along it

[9] = test system: Mast/stem cell growth factor receptor Kit (Homo sapiens), P10721 [D816H]; conditions: Compound concentration 1000.0 nM
Chain of Mast/stem cell growth factor receptor Kit (Homo sapiens), P10721 [D816H] (P10721 whole entry D816H): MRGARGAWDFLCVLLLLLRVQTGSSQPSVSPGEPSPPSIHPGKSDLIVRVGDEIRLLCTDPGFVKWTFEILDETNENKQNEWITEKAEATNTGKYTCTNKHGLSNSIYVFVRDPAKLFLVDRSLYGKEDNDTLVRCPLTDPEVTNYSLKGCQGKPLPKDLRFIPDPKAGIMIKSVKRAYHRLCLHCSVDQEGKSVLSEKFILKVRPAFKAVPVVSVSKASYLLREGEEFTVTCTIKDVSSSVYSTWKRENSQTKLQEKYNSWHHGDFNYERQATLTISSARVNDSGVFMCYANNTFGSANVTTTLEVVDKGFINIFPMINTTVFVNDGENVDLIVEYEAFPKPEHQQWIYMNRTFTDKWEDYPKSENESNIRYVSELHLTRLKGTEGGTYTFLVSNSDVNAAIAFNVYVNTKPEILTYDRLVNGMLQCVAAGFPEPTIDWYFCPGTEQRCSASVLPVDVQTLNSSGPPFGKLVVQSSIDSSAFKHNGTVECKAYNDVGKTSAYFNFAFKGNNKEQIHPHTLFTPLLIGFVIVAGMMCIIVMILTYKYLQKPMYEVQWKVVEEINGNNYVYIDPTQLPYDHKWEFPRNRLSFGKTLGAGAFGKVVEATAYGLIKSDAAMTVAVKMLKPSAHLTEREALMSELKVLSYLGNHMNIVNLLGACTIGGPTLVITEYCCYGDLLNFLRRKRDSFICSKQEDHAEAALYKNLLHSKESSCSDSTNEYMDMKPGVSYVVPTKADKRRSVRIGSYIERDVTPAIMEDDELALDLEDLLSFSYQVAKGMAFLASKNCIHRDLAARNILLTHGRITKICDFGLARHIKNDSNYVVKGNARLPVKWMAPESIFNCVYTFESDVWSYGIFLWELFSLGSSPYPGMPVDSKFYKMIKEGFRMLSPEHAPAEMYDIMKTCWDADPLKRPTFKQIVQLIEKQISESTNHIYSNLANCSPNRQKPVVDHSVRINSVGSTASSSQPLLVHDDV

[10] = target: 5-hydroxytryptamine receptor 2B (Homo sapiens) (UniProt P41595); conditions: Compound concentration 10.0 uM
[11] = target: Serine/threonine-protein kinase D1 (Homo sapiens) (UniProt Q15139); conditions: Compound concentration 1000.0 nM
Chain of Serine/threonine-protein kinase D1 (Homo sapiens) (Q15139 whole entry): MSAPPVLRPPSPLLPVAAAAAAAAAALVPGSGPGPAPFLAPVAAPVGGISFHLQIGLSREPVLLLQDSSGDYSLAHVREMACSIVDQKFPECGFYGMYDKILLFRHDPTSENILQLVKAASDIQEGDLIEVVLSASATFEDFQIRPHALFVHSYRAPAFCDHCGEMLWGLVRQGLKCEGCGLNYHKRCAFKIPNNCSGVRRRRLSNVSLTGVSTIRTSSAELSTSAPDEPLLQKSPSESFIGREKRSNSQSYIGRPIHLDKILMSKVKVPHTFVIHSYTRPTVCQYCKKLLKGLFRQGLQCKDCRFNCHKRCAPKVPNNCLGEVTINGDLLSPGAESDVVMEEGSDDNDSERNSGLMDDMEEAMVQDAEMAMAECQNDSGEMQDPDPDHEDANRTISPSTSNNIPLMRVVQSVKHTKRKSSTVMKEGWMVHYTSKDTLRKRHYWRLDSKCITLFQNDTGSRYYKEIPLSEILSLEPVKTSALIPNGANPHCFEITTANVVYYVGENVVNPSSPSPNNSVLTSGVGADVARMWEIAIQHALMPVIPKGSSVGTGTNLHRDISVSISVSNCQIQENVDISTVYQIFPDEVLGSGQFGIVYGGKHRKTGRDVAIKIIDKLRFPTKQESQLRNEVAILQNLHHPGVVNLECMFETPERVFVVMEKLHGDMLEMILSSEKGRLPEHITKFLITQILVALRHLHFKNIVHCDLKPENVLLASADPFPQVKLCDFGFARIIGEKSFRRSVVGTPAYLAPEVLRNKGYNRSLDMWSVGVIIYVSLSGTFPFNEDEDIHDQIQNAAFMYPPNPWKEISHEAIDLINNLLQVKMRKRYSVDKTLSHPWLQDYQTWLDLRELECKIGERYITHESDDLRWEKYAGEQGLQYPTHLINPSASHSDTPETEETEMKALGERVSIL

[12] = target: Serine/threonine-protein kinase RIO2 (Homo sapiens) (UniProt Q9BVS4); conditions: Compound concentration 1000.0 nM
[13] = target: Bone morphogenetic protein receptor type-2 (Homo sapiens) (UniProt Q13873); conditions: Compound concentration 1000.0 nM
Chain of Bone morphogenetic protein receptor type-2 (Homo sapiens) (Q13873 whole entry): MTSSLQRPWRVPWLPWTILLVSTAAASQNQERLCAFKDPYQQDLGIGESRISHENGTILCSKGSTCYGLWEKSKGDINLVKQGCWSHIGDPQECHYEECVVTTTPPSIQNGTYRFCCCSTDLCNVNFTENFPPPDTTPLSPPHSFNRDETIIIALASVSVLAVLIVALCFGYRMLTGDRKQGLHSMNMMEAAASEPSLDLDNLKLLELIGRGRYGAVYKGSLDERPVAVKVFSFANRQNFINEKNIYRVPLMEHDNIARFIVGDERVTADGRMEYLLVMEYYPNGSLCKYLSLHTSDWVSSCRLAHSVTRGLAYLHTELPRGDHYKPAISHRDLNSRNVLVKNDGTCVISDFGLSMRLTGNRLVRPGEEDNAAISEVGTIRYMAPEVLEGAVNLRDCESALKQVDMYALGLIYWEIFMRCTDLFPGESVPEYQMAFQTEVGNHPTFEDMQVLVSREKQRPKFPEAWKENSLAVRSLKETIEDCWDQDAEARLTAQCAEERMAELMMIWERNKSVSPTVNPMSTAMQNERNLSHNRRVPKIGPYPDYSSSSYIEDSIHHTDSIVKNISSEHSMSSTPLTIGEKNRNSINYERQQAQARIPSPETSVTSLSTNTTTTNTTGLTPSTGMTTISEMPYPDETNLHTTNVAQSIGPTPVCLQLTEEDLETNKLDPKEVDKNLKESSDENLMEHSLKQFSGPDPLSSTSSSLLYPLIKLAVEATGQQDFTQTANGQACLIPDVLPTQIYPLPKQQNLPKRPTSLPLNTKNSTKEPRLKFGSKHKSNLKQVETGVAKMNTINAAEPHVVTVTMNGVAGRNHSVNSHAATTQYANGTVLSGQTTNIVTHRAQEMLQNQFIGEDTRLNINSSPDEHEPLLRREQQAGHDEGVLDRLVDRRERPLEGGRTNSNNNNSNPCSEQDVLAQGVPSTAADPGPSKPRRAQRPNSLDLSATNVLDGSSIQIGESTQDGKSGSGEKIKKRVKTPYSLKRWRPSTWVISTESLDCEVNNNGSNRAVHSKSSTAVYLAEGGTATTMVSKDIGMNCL

[14] = target: Serine/threonine-protein kinase ULK3 (Homo sapiens) (UniProt Q6PHR2); conditions: Compound concentration 1000.0 nM
[15] = target: Mitotic checkpoint serine/threonine-protein kinase BUB1 (Homo sapiens) (UniProt O43683); conditions: Compound concentration 1000.0 nM
[16] = target: Ribosomal protein S6 kinase alpha-3 (Homo sapiens) (UniProt P51812); conditions: Compound concentration 1000.0 nM
[17] = target: Calcium/calmodulin-dependent protein kinase type 1D (Homo sapiens) (UniProt Q8IU85); conditions: Compound concentration 1000.0 nM
[18] = target: Mitogen-activated protein kinase 4 (Homo sapiens) (UniProt P31152); conditions: Compound concentration 1000.0 nM
[19] = target: 5-hydroxytryptamine receptor 5A (Homo sapiens) (UniProt P47898); conditions: Compound concentration 10.0 uM
Chain of 5-hydroxytryptamine receptor 5A (Homo sapiens) (P47898 whole entry): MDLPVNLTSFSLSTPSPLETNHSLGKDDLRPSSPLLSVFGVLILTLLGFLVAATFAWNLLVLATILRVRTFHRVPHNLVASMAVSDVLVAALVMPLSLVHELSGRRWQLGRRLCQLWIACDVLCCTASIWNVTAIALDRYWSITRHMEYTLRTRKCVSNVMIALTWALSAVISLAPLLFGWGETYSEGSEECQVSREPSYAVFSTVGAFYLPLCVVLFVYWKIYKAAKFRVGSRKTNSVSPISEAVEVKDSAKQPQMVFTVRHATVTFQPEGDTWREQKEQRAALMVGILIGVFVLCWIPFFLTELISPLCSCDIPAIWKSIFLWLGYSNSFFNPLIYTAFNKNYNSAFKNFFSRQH

[20] = target: Glycogen synthase kinase-3 alpha (Homo sapiens) (UniProt P49840); conditions: Compound concentration 1000.0 nM
[21] = target: Phosphatidylinositol 4-phosphate 5-kinase type-1 alpha (Homo sapiens) (UniProt Q99755); conditions: Compound concentration 1000.0 nM
[22] = target: 5'-AMP-activated protein kinase catalytic subunit alpha-1 (Homo sapiens) (UniProt Q13131); conditions: Compound concentration 1000.0 nM
[23] = target: Activin receptor type-1-like (Homo sapiens) (UniProt P37023); conditions: Compound concentration 1000.0 nM
[24] = target: Serine/threonine-protein kinase SIK2 (Homo sapiens) (UniProt Q9H0K1); conditions: Compound concentration 1000.0 nM
[25] = target: Serine/threonine-protein kinase TBK1 (Homo sapiens) (UniProt Q9UHD2); conditions: Compound concentration 1000.0 nM
[26] = target: Ephrin type-B receptor 4 (Homo sapiens) (UniProt P54760); conditions: Compound concentration 1000.0 nM
[27] = target: Serine/threonine-protein kinase Nek5 (Homo sapiens) (UniProt Q6P3R8); conditions: Compound concentration 1000.0 nM
[28] = target: Mitogen-activated protein kinase 15 (Homo sapiens) (UniProt Q8TD08); conditions: Compound concentration 1000.0 nM
[29] = target: Mitogen-activated protein kinase kinase kinase 9 (Homo sapiens) (UniProt P80192); conditions: Compound concentration 1000.0 nM
[30] = target: Serine/threonine-protein kinase PLK3 (Homo sapiens) (UniProt Q9H4B4); conditions: Compound concentration 1000.0 nM
[31] = test system: Epidermal growth factor receptor (Homo sapiens), P00533 [UNDEFINED MUTATION]; conditions: Compound concentration 1000.0 nM
[32] = target: Serine/threonine-protein kinase N2 (Homo sapiens) (UniProt Q16513); conditions: Compound concentration 1000.0 nM
[33] = target: TGF-beta receptor type-2 (Homo sapiens) (UniProt P37173); conditions: Compound concentration 1000.0 nM
Chain of TGF-beta receptor type-2 (Homo sapiens) (P37173 whole entry): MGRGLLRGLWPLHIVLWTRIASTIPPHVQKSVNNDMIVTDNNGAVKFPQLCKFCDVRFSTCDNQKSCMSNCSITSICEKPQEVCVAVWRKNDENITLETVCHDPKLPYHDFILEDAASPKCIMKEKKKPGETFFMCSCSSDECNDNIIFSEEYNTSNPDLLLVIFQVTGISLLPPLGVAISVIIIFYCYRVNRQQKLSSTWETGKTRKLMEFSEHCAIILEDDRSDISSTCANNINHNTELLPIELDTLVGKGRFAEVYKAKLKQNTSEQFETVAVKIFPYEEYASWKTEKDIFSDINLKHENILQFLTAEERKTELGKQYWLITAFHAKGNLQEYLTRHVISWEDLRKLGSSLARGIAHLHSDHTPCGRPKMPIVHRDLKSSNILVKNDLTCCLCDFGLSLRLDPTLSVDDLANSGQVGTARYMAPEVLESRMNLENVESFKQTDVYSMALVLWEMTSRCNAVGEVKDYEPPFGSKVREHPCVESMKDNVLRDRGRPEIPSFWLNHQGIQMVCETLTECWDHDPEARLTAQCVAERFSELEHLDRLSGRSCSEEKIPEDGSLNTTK

[34] = target: Mitogen-activated protein kinase 14 (Homo sapiens) (UniProt Q16539); conditions: Compound concentration 1000.0 nM
[35] = target: Dual specificity mitogen-activated protein kinase kinase 5 (Homo sapiens) (UniProt Q13163); conditions: Compound concentration 1000.0 nM
[36] = target: Rho-associated protein kinase 2 (Homo sapiens) (UniProt O75116); conditions: Compound concentration 1000.0 nM
[37] = target: Ephrin type-A receptor 1 (Homo sapiens) (UniProt P21709); conditions: Compound concentration 1000.0 nM
[38] = test system: Tyrosine-protein kinase ABL1 (Homo sapiens), P00519 [H396P]; conditions: Compound concentration 1000.0 nM
[39] = target: Serine/threonine-protein kinase D2 (Homo sapiens) (UniProt Q9BZL6); conditions: Compound concentration 1000.0 nM
[40] = target: Ankyrin repeat and protein kinase domain-containing protein 1 (Homo sapiens) (UniProt Q8NFD2); conditions: Compound concentration 1000.0 nM
[41] = target: Myosin-IIIa (Homo sapiens) (UniProt Q8NEV4); conditions: Compound concentration 1000.0 nM
[42] = target: Tyrosine-protein kinase Fgr (Homo sapiens) (UniProt P09769); conditions: Compound concentration 1000.0 nM
[43] = target: Serine/threonine-protein kinase WNK2 (Homo sapiens) (UniProt Q9Y3S1); conditions: Compound concentration 1000.0 nM
[44] = target: Transient receptor potential cation channel subfamily M member 6 (Homo sapiens) (UniProt Q9BX84); conditions: Compound concentration 1000.0 nM
[45] = target: Serine/threonine-protein kinase 38-like (Homo sapiens) (UniProt Q9Y2H1); conditions: Compound concentration 1000.0 nM

## C[C@H](NC(=O)c1cnc2n1[C@](C)(Cc1ccc(C#N)cc1)C(=O)N2c1cc(Cl)c(F)c(Cl)c1)C(=O)NC1(c2ccccn2)CC1 [BI 1950]
[1]
  residual activity: 100%
[2]
  residual activity: 100%
[3]
  residual activity: 100%
[4]
  residual activity: 100%
[5]
  residual activity: 100%
[6]
  residual activity: 68%
[7]
  residual activity: 100%
[8]
  residual activity: 100%
[9]
  residual activity: 100%
[10]
  inhibition: 17.2%
[11]
  residual activity: 100%
[12]
  residual activity: 100%
[13]
  residual activity: 100%
[14]
  residual activity: 100%
[15]
  residual activity: 100%
[16]
  residual activity: 100%
[17]
  residual activity: 99%
[18]
  residual activity: 100%
[19]
  inhibition: 6.14%
[20]
  residual activity: 100%
[21]
  residual activity: 100%
[22]
  residual activity: 100%
[23]
  residual activity: 100%
[24]
  residual activity: 100%
[25]
  residual activity: 97%
[26]
  residual activity: 100%
[27]
  residual activity: 100%
[28]
  residual activity: 100%
[29]
  residual activity: 100%
[30]
  residual activity: 81%
[31]
  residual activity: 100%
[32]
  residual activity: 63%
[33]
  residual activity: 100%
[34]
  residual activity: 100%
[35]
  residual activity: 100%
[36]
  residual activity: 100%
[37]
  residual activity: 100%
[38]
  residual activity: 91%
[39]
  residual activity: 100%
[40]
  residual activity: 100%
[41]
  residual activity: 100%
[42]
  residual activity: 100%
[43]
  residual activity: 100%
[44]
  residual activity: 100%
[45]
  residual activity: 49%

## C[C@@]1(Cc2ccc(C#N)cc2)C(=O)N(c2cc(Cl)cc(Cl)c2)c2ncc(C(=O)NC3(c4nc(C5CCC5)no4)CC3)n21 [BI 9446]
[1]
  residual activity: 100%
[2]
  residual activity: 86%
[3]
  residual activity: 100%
[4]
  residual activity: 100%
[5]
  residual activity: 87%
[6]
  residual activity: 91%
[7]
  residual activity: 99%
[8]
  residual activity: 100%
[9]
  residual activity: 100%
[10]
  inhibition: 15.5%
[11]
  residual activity: 86%
[12]
  residual activity: 100%
[13]
  residual activity: 100%
[14]
  residual activity: 100%
[15]
  residual activity: 100%
[16]
  residual activity: 100%
[17]
  residual activity: 100%
[18]
  residual activity: 100%
[19]
  inhibition: 2.14%
[20]
  residual activity: 100%
[21]
  residual activity: 100%
[22]
  residual activity: 100%
[23]
  residual activity: 100%
[24]
  residual activity: 100%
[25]
  residual activity: 95%
[26]
  residual activity: 100%
[27]
  residual activity: 100%
[28]
  residual activity: 100%
[29]
  residual activity: 100%
[30]
  residual activity: 100%
[31]
  residual activity: 100%
[32]
  residual activity: 100%
[33]
  residual activity: 99%
[34]
  residual activity: 100%
[35]
  residual activity: 100%
[36]
  residual activity: 100%
[37]
  residual activity: 100%
[38]
  residual activity: 96%
[39]
  residual activity: 100%
[40]
  residual activity: 100%
[41]
  residual activity: 100%
[42]
  residual activity: 100%
[43]
  residual activity: 100%
[44]
  residual activity: 0%
[45]
  residual activity: 48%

Source: ChEMBL document CHEMBL4507282, “Data for DCP probe BI-1950” (2021)
